Data set [1] is classed as physicochemical. From the text: Certain components of the formulation tend to be difficult to solubilize in conventional formulations. […] For topical compositions containing from about 0.05% by weight to about 0.1% by weight phosphatidyl serine and/or from about 0.05% by weight to about 0.1% by weight oleuropein, caprylyl methicone in an amount of from about 0.5% by weight to about 1% by weight of caprylyl methicone can solubilize these components in an anhydrous formulation.
In Formula 8B, the amount of palmitoyl tripeptide was increased to 3%, and phosphatidylserine (lipoid PS P 70) was added, along with oleuropein 80% at 0.025%. […] In Formula 9B, the concentration of heptyl undecylenate was lowered to 2.5%, caprylyl methicone was added to solubilize the Lipoind PS P 70, which was increased to 0.05%, and oleuropein 80% was increased to 0.05%. The viscosity for Formula 9B was approximately 5000 cPs.

The test system of a further data set is MMP-2. The following applies: wound chamber, vs control, cited from earlier work.
For another data set, the system named is VEGF. The following applies: pg VEGF/ng DNA as a function of GHK ng/mL; FIG. 11; cited from earlier work.

Consider `C/C=C1/[C@H](O[C@@H]2O[C@H](CO)[C@@H](O)[C@H](O)[C@H]2O)OC=C(C(=O)OC)[C@H]1CC(=O)OCCc1ccc(O)c(O)c1` [oleuropein], for which, in data set [1], the “solubility in heptyl undecylenate” value is given as “poor solubility”. As for glycine-histidine-lysine [GHK], the “gelatinolytic activity (peaks area/μg protein), MMP-2” value in the data set with MMP-2 (from day 3, peaking at days 18-22, FIG. 9) is “far greater degree than control”. For the same compound, the “gelatinolytic activity (peaks area/μg protein)” value in the data set on MMP-2 (from day 12, peaking at days 18-22, FIG. 10) is reported as “far greater degree than control”. In addition, in the data set with VEGF, the “secretion of VEGF” value is recorded as “dose-dependently increases”. For phosphatidylserine [Lipoid PS P70], in data set [1], the “solubility in heptyl undecylenate” value is listed as “poor solubility”.

The record behind these values is US11426443B2, “Compositions and methods for invasive and non-invasive procedural skincare” (Alastin Skincare, Inc., priority 2016, dated 2022).
